The target of test [1] is human serotonin reuptake transporter (Homo sapiens, UniProt P31645). In words: cell-based.
In test [2] the target is T1, human dopamine reuptake transporter (Homo sapiens, UniProt Q01959).
T1 construct: expressed in transfected cells; host or cells: CHO-K1 or HEK293
Briefly: cell-based.

Setting [3] is: Human IC50 (nM) hSERT, recombinant human serotonin transporter (SERT).
Setting [4] is: recombinant human dopamine transporter (DAT), read-out: Human IC50 (nM) hDAT.
Setting [5] is: recombinant human serotonin transporter (SERT), read-out: Human IC50 (nM) hSERT.
[6] abbreviates: read-out: Human IC50 (nM) hSERT.

Structures are written as SMILES. Structures can show the parent of a compound that is named as a salt. Where two headings read alike, the source gives them in different places.

Sequence of human serotonin reuptake transporter (P31645 whole entry): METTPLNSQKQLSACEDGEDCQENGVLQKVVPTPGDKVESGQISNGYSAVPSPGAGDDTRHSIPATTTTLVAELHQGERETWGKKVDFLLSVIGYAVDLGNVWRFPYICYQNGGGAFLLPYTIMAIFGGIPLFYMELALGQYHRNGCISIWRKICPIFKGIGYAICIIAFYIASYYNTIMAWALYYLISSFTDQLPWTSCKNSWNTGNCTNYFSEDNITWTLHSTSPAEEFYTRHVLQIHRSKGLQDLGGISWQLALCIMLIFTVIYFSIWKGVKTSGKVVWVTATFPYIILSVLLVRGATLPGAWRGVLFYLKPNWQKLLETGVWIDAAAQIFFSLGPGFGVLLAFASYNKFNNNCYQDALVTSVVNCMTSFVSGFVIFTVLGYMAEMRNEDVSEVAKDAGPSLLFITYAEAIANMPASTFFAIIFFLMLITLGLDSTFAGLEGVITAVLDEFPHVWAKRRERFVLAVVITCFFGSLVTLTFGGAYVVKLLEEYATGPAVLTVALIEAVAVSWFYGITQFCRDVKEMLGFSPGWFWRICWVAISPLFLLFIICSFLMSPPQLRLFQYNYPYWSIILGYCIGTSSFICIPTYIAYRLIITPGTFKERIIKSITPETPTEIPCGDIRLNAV
T1 sequence (Q01959 whole entry): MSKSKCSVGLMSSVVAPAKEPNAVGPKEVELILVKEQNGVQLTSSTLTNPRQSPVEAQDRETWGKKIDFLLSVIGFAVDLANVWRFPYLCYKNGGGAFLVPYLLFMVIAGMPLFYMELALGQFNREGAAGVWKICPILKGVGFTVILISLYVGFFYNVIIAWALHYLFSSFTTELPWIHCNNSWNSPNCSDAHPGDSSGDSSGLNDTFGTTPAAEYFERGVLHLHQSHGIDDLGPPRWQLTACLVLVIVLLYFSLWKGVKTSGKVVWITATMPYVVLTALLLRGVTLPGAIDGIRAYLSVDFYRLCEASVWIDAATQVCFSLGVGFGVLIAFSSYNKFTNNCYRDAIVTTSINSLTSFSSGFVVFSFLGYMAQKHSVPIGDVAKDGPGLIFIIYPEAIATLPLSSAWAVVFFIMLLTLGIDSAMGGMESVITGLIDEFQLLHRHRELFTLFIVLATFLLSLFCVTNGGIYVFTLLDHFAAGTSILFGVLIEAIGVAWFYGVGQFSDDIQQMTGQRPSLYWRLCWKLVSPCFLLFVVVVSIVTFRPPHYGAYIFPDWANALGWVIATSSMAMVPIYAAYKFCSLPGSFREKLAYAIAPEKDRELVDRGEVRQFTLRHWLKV

As a reminder, the IC50 is the midpoint of a concentration-inhibition curve. For `CNCC1(c2ccc(C(F)(F)F)cc2)CCCCC1` [Compound 100, N-methyl-1-(1-(4-(trifluoromethyl)phenyl)-cyclohexyl)methanamine], the IC50 was 1500 nM in test [1] (setting [3]) and 3410 nM in test [2] (setting [4]).

Take `CCC1(O)CCC(CN)(c2ccc(Cl)c(Cl)c2)CC1` (stereo not drawn) [Compound 278, 4-(aminomethyl)-4-(3,4-dichlorophenyl)-1-ethylcyclohexanol]: the IC50 in test [1] (setting [5]) is 5140 nM; in test [2] (setting [4]), 3190 nM.

For the compound `CCC1(O)CCC(CN(C)C)(c2ccc(Cl)c(Cl)c2)CC1` (stereo not drawn) [Compound 280, 4-(3,4-dichlorophenyl)-4-((dimethylamino)methyl)-1-ethylcyclohexanol], the results for the IC50 in test [1] (setting [5]) and in test [2] (setting [4]) were 7 nM and 242 nM, respectively.

Take `CN(C)CC1(c2ccc3cc(F)ccc3c2)CCCCC1` [Compound 68, 1-(1-(6-fluoronaphthalen-2-yl)cyclohexyl)-N,N-dimethylmethanamine]: the IC50 in test [1] (setting [5]) came to 19 nM; in test [2] (setting [4]) it was 343 nM.

As for `NCC1(c2ccc3ccccc3c2)CCC(O)(CF)CC1` (stereo not drawn) [Compound 218, 4-(aminomethyl)-1-(fluoromethyl)-4-(naphthalen-2-yl)cyclohexanol], the results for the IC50 in test [1] (setting [5]) and in test [2] (setting [4]) were 480 nM and 5590 nM, respectively.

As for `CNCC1(c2ccc3ccccc3c2)CCC(F)(F)CC1` [Compound 251, 1-(4,4-difluoro-1-(naphthalen-2-yl)cyclohexyl)-N-methylmethanamine], the figures for the IC50 in test [1] (setting [5]) and in test [2] (setting [4]) were 199 nM and 107 nM, respectively.

Turning to `CC1(O)CCCC(CN)(c2ccc(Cl)c(Cl)c2)C1` (single isomer, unassigned) [193 E2, 3-Aminomethyl-3-(3,4-dichloro-phenyl)-1-methyl-cyclohexanol], the IC50 in test [1] (setting [5]) was found to be 957 nM; in test [2] (setting [4]), 3160 nM.

Turning to `CCCC1(O)CCC(CN(C)C)(c2ccc(Cl)c(Cl)c2)CC1` (stereo not drawn) [Compound 286, 4-(3,4-dichlorophenyl)-4-((dimethylamino)methyl)-1-propylcyclohexanol], the IC50 stood at 46 nM in test [1] (setting [6]) and 198 nM in test [2] (setting [4]).

With `c1ccc2cc(C3(C4CCCN4)CCCCC3)ccc2c1` (stereo not drawn) [Compound 297, 2-(1-(naphthalen-2-yl)cyclohexyl)pyrrolidine], the IC50 stood at 40 nM in test [1] (setting [5]) and 13 nM in test [2] (setting [4]).

For the compound `CC(N(C)C)C1(c2ccc3ccccc3c2)CCC(C)(O)CC1` (single isomer, unassigned) [234 E2, 4-(1-(dimethylamino)ethyl)-1-methyl-4-(naphthalen-2-yl)cyclohexanol], the IC50 in test [1] (setting [5]) was found to be 18 nM; in test [2] (setting [4]), 21 nM.

For `Clc1ccc(C2(C3CCCN3)CCCCC2)cc1Cl` (stereo not drawn) [Compound 296, 2-(1-(3,4-dichlorophenyl)cyclohexyl)pyrrolidine], the IC50 in test [1] (setting [5]) worked out at 73 nM; in test [2] (setting [4]), 27 nM.

With `CNCC1(c2ccc(Cl)c(Cl)c2)CCC(F)CC1` (stereo not drawn) [Compound 264, 1-(1-(3,4-dichlorophenyl)-4-fluorocyclohexyl)-N-methylmethanamine], the IC50 in test [1] (setting [5]) is 1050 nM; in test [2] (setting [4]), 17 nM.

As for `CCCC1(O)CCC(CNC)(c2ccc(Cl)c(Cl)c2)CC1` (stereo not drawn) [Compound 285, 4-(3,4-dichlorophenyl)-4-((methylamino)methyl)-1-propylcyclohexanol], the results for the IC50 in test [1] (setting [5]) and in test [2] (setting [4]) were 1140 nM and 1900 nM, respectively.

As for `CCCC1(O)CCC(CN)(c2ccc(Cl)c(Cl)c2)CC1` (stereo not drawn) [Compound 284, 4-(aminomethyl)-4-(3,4-dichlorophenyl)-1-propylcyclohexanol], the IC50 stood at 7900 nM in test [1] (setting [5]) and 2460 nM in test [2] (setting [4]).

As to `CN(C)CC1(c2ccc(F)c3ccccc23)CCCCC1` [Compound 70, 1-(1-(4-fluoronaphthalen-1-yl)cyclohexyl)-N,N-dimethylmethanamine], the values for the IC50 in test [1] (setting [5]) and in test [2] (setting [4]) were 29 nM and 214 nM, respectively.

Consider `CNCC1(c2ccc(Cl)c(Cl)c2)CC=CC1` [Compound 168, 1-(1-(3,4-dichlorophenyl)cyclopent-3-enyl)-N-methylmethanamine], for which the IC50 in test [1] (setting [3]) stood at 1470 nM; in test [2] (setting [4]) it was 108 nM.

As to `CNCC1(c2ccc3ccccc3c2)CC=CCC1` (racemic) [Compound 292, N-methyl-1-(1-(naphthalen-2-yl)cyclohex-3-enyl)methanamine], the figures for the IC50 in test [1] (setting [6]) and in test [2] (Human IC50 (nM) hDAT) were 360 nM and 89 nM, respectively.

`CN(C)CC1(c2ccc(Cl)c(Cl)c2)CCC(C)(O)CC1` (stereo not drawn) [Compound 274, 4-(3,4-dichlorophenyl)-4-((dimethylamino)methyl)-1-methylcyclohexanol]: the values for the IC50 in test [1] (setting [5]) and in test [2] (setting [4]) were 809 nM and 251 nM, respectively.

For the compound `OC1CCCCC1NCC1(c2ccc(Cl)c(Cl)c2)CCCCC1` (racemic) [Compound 117, 2-((1-(3,4-dichlorophenyl)cyclohexyl)methylamino)cyclohexanol], the IC50 in test [1] (setting [5]) came out at 7900 nM; in test [2] (setting [4]), 33 nM.

Consider `CNCC1(c2ccc(Cl)c(F)c2)CCCCC1` [Compound 95, (1-(4-chloro-3-fluorophenyl)cyclohexyl)-N-methylmethanamine], for which the IC50 in test [1] (setting [3]) came out at 480 nM; in test [2] (setting [4]), 324 nM.

As for `CCC(N(C)C)C1(c2ccc(Cl)c(Cl)c2)CCCCC1` (single isomer, unassigned) [61 E1, 1-(1-(3,4-dichlorophenyl)cyclohexyl)-N,N-dimethylpropan-1-amine], the IC50 was found to be 5950 nM in test [1] (setting [3]) and 959 nM in test [2] (setting [4]).

For the compound `CC1(O)CCC(CN)(c2ccc3c(c2)OCO3)CC1` (stereo not drawn) [Compound 215, 4-(aminomethyl)-4-(benzo[d][1,3]dioxol-5-yl)-1-methylcyclohexanol], the concentration for half-maximal inhibition (IC50) in test [1] (setting [5]) worked out at 4190 nM; in test [2] (setting [4]), 6240 nM.

`CN(C)CC1(c2ccc(OC(F)(F)F)cc2)CCC(C)(O)CC1` (stereo not drawn) [Compound 248, 4-((dimethylamino)methyl)-1-methyl-4-(4-(trifluoromethoxy)phenyl)cyclohexanol]: the IC50 amounted to 159 nM in test [1] (setting [5]) and 7250 nM in test [2] (setting [4]).

On to `CN(C)CC1(c2ccc(Cl)c(Cl)c2)CCC(Oc2ccccc2)CC1` (stereo not drawn) [Compound 266, 1-(1-(3,4-dichlorophenyl)-4-phenoxycyclohexyl)-N,N-dimethylmethanamine], for which the IC50 worked out at 168 nM in test [1] (setting [6]) and 859 nM in test [2] (read-out: Human IC50 (nM) hDAT).

With `CC(N(C)C)C1(c2ccc3ccccc3c2)CCC(C)(O)CC1` (single isomer, unassigned) [234 E1, 4-(1-(dimethylamino)ethyl)-1-methyl-4-(naphthalen-2-yl)cyclohexanol], the IC50 in test [1] (setting [5]) was found to be 3380 nM; in test [2] (setting [4]) it was 346 nM.

As to `CC(N)C1(c2ccc(-c3ccoc3)cc2)CCCCC1` (single isomer, unassigned) [20 E1, 1-(1-(4-(furan-3-yl)phenyl)cyclohexyl)ethanamine], the figures for the IC50 in test [1] (setting [5]) and in test [2] (setting [4]) were 40 nM and 369 nM, respectively.

For `CNCC1(c2ccc3ccccc3c2)CCC(C)(O)CC1` (stereo not drawn) [Compound 223, 1-methyl-4-((methylamino)methyl)-4-(naphthalen-2-yl)cyclohexanol], the IC50 in test [1] (setting [5]) was found to be 73 nM; in test [2] (read-out: Human IC50 (nM) hDAT) it was 874 nM.

For `NCC1(c2ccc(Cl)c(Cl)c2)CCC1` [Compound 1, (1-(3,4-dichlorophenyl)cyclobutyl)methanamine], the IC50 in test [1] (setting [5]) was determined as 1290 nM; in test [2] (setting [4]), 103 nM.

In the case of `CNCC1(c2ccc(OC)cc2)CCCCC1O` (single isomer, unassigned) [139 E1, cis-2-((methylamino)methyl)-2-(4-methoxyphenyl)cyclohexanol], the IC50 in test [1] (setting [5]) and in test [2] (setting [4]) was > 10000 nM in each case.

With `CN(C)CC1(c2ccc(Cl)c(Cl)c2)CCC(O)CC1` (stereo not drawn) [Compound 263, 4-(3,4-dichlorophenyl)-4-((dimethylamino)methyl)cyclohexanol], the IC50 is 674 nM in test [1] (setting [5]) and 498 nM in test [2] (setting [4]).

For the compound `NCC1(c2ccc(Cl)c(Cl)c2)CCC(Oc2ccccc2)CC1` (stereo not drawn) [Compound 265, (1-(3,4-dichlorophenyl)-4-phenoxycyclohexyl)methanamine], the IC50 amounted to 109 nM in test [1] (setting [5]) and 1450 nM in test [2] (setting [4]).

For `CN(C)CC1(c2ccc3c(c2)OCO3)CCCCC1` [Compound 102, 1-(1-(benzo[d][1,3]dioxol-5-yl)cyclohexyl)-N,N-dimethylmethanamine], the values for the IC50 in test [1] (setting [3]) and in test [2] (setting [4]) were 195 nM and 420 nM, respectively.

With `CNCC1(c2ccc(Cl)c(Cl)c2)CCC2(CC1)OCCO2` [Compound 270, 1-(8-(3,4-dichlorophenyl)-1,4-dioxaspiro[4.5]decan-8-yl)-N-methylmethanamine], the figures for the IC50 in test [1] (setting [5]) and in test [2] (setting [4]) were 469 nM and 376 nM, respectively.

For the compound `NCC1(c2ccc3ccccc3c2)CCC(O)CC1` (stereo not drawn) [Compound 208, 4-(aminomethyl)-4-(naphthalen-2-yl)cyclohexanol], the IC50 in test [1] (setting [5]) stood at 1990 nM; in test [2] (setting [4]), 7670 nM.

In the case of `CN(C)CC1(c2ccc3ccccc3c2)CCC(Cl)CC1` (stereo not drawn) [Compound 230, 1-(4-chloro-1-(naphthalen-2-yl)cyclohexyl)-N,N-dimethylmethanamine], the results for the IC50 in test [1] (setting [5]) and in test [2] (setting [4]) were 30 nM and 11 nM, respectively.

As to `CN1Cc2c(ccc3c2OCO3)C2(CCC(C)(O)CC2)C1` (single isomer, unassigned) [Compound 294, 4',8-dimethyl-8,9-dihydro-7H-spiro([1,3]dioxolo[4,5-h]isoquinoline-6,1'-cyclohexan]-4'-ol], the IC50 in test [1] (setting [5]) and in test [2] (setting [4]) was > 10000 nM throughout.

Turning to `NCC1(c2ccc3c(c2)OCO3)CCC(O)CC1` (stereo not drawn) [Compound 214, 4-(aminomethyl)-4-(benzo[d][1,3]dioxol-5-yl)cyclohexanol], the IC50 in test [1] (setting [5]) and in test [2] (setting [4]) was > 10000 nM each time.

Consider `NCC1(c2cccc(Cl)c2)CCCCC1` [Compound 28, (1-(3-chlorophenyl)cyclohexyl)methanamine hydrochloride], for which the IC50 in test [1] (setting [5]) was 4560 nM; in test [2] (setting [4]), 707 nM.

`CNCC1(c2ccc3ccccc3c2)CCC(O)(CF)CC1` (stereo not drawn) [Compound 245, 1-(fluoromethyl)-4-((methylamino)methyl)-4-(naphthalen-2-yl)cyclohexanol]: the IC50 in test [1] (setting [5]) came out at 538 nM; in test [2] (setting [4]), 2270 nM.

For the origin of these results see patent EP1976513B1 (priority 2006, dated 2007).
